Measurements taken from ChEMBL document CHEMBL4507311, “Data for DCP probe A-1155463” (2021).

Assays:
Settings in all cases: Compound concentration 1000.0 nM
[1] = system: Mast/stem cell growth factor receptor Kit (Homo sapiens), P10721 [D816H]
[2] = target: G protein-coupled receptor kinase 3 (Homo sapiens) (UniProt P35626)
[3] = target: Protein kinase C iota type (Homo sapiens) (UniProt P41743)
[4] = target: Serine/threonine-protein kinase SIK1 (Homo sapiens) (UniProt P57059)
[5] = target: Serine/threonine-protein kinase Nek4 (Homo sapiens) (UniProt P51957)
[6] = target: Serine/threonine-protein kinase ULK3 (Homo sapiens) (UniProt Q6PHR2)
[7] = target: Activated CDC42 kinase 1 (Homo sapiens) (UniProt Q07912)
[8] = target: Serine/threonine-protein kinase RIO2 (Homo sapiens) (UniProt Q9BVS4)
[9] = target: Serine/threonine-protein kinase 32A (Homo sapiens) (UniProt Q8WU08)
[10] = target: Dual specificity mitogen-activated protein kinase kinase 3 (Homo sapiens) (UniProt P46734)
[11] = target: Mitogen-activated protein kinase 7 (Homo sapiens) (UniProt Q13164)
[12] = target: Dual specificity tyrosine-phosphorylation-regulated kinase 2 (Homo sapiens) (UniProt Q92630)
[13] = target: 1-phosphatidylinositol 3-phosphate 5-kinase (Homo sapiens) (UniProt Q9Y2I7)
[14] = target: Ephrin type-B receptor 1 (Homo sapiens) (UniProt P54762)
[15] = target: Insulin receptor-related protein (Homo sapiens) (UniProt P14616)
[16] = target: Muscle, skeletal receptor tyrosine-protein kinase (Homo sapiens) (UniProt O15146)
[17] = target: Dual specificity protein kinase CLK4 (Homo sapiens) (UniProt Q9HAZ1)
[18] = system: Epidermal growth factor receptor (Homo sapiens), P00533 [UNDEFINED MUTATION]
[19] = target: Testis-specific serine/threonine-protein kinase 1 (Homo sapiens) (UniProt Q9BXA7)
[20] = target: Tyrosine-protein kinase Blk (Homo sapiens) (UniProt P51451)
[21] = target: Serine/threonine-protein kinase Nek3 (Homo sapiens) (UniProt P51956)
[22] = system: Receptor-type tyrosine-protein kinase FLT3 (Homo sapiens), P36888 [UNDEFINED MUTATION]
[23] = target: Serine/threonine-protein kinase tousled-like 1 (Homo sapiens) (UniProt Q9UKI8)
[24] = target: Mitogen-activated protein kinase 8 (Homo sapiens) (UniProt P45983)
[25] = target: Mitogen-activated protein kinase 10 (Homo sapiens) (UniProt P53779)
[26] = target: Misshapen-like kinase 1 (Homo sapiens) (UniProt Q8N4C8)
[27] = target: BDNF/NT-3 growth factors receptor (Homo sapiens) (UniProt Q16620)
[28] = system: Tyrosine-protein kinase ABL1 (Homo sapiens), P00519 [T315I]
[29] = system: Mast/stem cell growth factor receptor Kit (Homo sapiens), P10721 [V559D]
[30] = target: Dual specificity tyrosine-phosphorylation-regulated kinase 1A (Homo sapiens) (UniProt Q13627)
[31] = system: Epidermal growth factor receptor (Homo sapiens), P00533 [UNDEFINED MUTATION]; remark: listed apart in the source
[32] = target: Casein kinase II subunit alpha (Homo sapiens) (UniProt P68400)
[33] = target: Serine/threonine-protein kinase PLK1 (Homo sapiens) (UniProt P53350)
[34] = target: LIM domain kinase 1 (Homo sapiens) (UniProt P53667)
[35] = system: Tyrosine-protein kinase ABL1 (Homo sapiens), P00519 [F317I]
[36] = system: Tyrosine-protein kinase ABL1 (Homo sapiens), P00519 [F317L]
[37] = system: Tyrosine-protein kinase ABL1 (Homo sapiens), P00519 [F317L]; remark: listed apart in the source
[38] = target: Interleukin-1 receptor-associated kinase 1 (Homo sapiens) (UniProt P51617)
[39] = target: Non-receptor tyrosine-protein kinase TYK2 (Homo sapiens) (UniProt P29597)
[40] = target: Serine/threonine-protein kinase 24 (Homo sapiens) (UniProt Q9Y6E0)
[41] = target: Casein kinase I isoform epsilon (Homo sapiens) (UniProt P49674)
[42] = target: Receptor-interacting serine/threonine-protein kinase 4 (Homo sapiens) (UniProt P57078)
[43] = target: Ribosomal protein S6 kinase alpha-5 (Homo sapiens) (UniProt O75582)
[44] = target: Serine/threonine-protein kinase LATS2 (Homo sapiens) (UniProt Q9NRM7)
[45] = target: Homeodomain-interacting protein kinase 1 (Homo sapiens) (UniProt Q86Z02)

Measured: residual activity

Epidermal growth factor receptor (Homo sapiens), P00533 [UNDEFINED MUTATION], sequence (P00533 whole entry, looked up, change not shown): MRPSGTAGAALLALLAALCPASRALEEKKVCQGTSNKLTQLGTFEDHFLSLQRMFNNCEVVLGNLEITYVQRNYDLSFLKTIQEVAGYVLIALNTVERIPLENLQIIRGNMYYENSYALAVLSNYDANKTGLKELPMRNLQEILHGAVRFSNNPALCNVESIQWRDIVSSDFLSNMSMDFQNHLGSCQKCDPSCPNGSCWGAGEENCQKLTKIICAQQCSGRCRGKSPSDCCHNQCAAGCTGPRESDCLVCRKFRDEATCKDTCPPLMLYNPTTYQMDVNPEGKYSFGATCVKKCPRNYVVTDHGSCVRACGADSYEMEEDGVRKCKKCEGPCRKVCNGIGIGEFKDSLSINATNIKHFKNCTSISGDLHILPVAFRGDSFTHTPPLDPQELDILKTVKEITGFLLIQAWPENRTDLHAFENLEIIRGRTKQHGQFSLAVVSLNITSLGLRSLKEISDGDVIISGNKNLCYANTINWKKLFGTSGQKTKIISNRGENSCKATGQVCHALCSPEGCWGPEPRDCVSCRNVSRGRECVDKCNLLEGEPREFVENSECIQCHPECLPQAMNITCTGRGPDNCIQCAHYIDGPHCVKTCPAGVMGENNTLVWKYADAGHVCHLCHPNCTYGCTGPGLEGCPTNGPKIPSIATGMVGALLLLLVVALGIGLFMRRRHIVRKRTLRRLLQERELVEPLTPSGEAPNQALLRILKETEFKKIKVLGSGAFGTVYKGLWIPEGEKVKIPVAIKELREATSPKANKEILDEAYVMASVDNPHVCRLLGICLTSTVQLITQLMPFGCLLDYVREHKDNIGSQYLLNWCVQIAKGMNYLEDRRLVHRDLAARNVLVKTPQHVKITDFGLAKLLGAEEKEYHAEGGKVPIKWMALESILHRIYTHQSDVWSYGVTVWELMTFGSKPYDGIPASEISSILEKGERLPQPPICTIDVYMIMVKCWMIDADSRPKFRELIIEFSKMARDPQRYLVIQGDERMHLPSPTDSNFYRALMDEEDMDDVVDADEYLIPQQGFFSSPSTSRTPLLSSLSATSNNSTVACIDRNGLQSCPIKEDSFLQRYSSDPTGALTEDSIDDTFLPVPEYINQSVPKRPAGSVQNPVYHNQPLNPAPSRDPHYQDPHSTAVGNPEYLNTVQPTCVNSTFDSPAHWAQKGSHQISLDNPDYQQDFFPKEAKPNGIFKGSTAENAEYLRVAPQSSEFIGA
Casein kinase I isoform epsilon (Homo sapiens), sequence (P49674 whole entry, looked up, canonical isoform): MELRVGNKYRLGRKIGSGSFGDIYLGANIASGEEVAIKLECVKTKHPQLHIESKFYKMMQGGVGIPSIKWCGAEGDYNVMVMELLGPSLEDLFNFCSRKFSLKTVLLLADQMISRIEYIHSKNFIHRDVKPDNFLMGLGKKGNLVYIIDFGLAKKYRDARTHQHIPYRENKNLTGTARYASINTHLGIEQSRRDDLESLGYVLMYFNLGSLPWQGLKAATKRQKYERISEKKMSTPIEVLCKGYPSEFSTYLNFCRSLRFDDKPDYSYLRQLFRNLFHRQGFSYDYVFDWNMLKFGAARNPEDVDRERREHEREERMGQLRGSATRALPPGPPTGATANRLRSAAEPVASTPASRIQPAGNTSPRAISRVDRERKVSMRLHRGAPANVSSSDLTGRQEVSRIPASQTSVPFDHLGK
Mitogen-activated protein kinase 7 (Homo sapiens), sequence (Q13164 2-816 limits assumed): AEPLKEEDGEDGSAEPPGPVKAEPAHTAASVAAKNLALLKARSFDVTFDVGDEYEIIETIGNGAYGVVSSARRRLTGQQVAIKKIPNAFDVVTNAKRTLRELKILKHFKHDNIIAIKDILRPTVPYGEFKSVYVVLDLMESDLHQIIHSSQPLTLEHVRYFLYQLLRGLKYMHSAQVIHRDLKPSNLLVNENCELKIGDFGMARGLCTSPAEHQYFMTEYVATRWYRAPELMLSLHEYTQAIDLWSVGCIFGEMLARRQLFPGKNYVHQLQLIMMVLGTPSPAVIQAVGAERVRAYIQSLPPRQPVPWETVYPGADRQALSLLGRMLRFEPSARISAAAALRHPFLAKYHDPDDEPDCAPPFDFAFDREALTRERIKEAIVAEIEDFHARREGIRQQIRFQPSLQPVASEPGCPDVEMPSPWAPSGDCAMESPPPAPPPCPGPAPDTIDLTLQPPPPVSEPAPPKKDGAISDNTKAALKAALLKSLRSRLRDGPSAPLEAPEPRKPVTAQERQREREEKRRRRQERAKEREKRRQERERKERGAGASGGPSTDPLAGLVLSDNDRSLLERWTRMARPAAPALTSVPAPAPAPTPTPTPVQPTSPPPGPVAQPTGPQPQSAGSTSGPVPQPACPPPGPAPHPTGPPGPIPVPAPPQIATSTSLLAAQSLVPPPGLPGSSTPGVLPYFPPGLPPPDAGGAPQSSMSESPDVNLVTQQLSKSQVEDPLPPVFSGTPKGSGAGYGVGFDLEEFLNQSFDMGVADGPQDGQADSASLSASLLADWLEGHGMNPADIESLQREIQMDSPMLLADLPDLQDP
Misshapen-like kinase 1 (Homo sapiens), sequence (Q8N4C8 whole entry, looked up): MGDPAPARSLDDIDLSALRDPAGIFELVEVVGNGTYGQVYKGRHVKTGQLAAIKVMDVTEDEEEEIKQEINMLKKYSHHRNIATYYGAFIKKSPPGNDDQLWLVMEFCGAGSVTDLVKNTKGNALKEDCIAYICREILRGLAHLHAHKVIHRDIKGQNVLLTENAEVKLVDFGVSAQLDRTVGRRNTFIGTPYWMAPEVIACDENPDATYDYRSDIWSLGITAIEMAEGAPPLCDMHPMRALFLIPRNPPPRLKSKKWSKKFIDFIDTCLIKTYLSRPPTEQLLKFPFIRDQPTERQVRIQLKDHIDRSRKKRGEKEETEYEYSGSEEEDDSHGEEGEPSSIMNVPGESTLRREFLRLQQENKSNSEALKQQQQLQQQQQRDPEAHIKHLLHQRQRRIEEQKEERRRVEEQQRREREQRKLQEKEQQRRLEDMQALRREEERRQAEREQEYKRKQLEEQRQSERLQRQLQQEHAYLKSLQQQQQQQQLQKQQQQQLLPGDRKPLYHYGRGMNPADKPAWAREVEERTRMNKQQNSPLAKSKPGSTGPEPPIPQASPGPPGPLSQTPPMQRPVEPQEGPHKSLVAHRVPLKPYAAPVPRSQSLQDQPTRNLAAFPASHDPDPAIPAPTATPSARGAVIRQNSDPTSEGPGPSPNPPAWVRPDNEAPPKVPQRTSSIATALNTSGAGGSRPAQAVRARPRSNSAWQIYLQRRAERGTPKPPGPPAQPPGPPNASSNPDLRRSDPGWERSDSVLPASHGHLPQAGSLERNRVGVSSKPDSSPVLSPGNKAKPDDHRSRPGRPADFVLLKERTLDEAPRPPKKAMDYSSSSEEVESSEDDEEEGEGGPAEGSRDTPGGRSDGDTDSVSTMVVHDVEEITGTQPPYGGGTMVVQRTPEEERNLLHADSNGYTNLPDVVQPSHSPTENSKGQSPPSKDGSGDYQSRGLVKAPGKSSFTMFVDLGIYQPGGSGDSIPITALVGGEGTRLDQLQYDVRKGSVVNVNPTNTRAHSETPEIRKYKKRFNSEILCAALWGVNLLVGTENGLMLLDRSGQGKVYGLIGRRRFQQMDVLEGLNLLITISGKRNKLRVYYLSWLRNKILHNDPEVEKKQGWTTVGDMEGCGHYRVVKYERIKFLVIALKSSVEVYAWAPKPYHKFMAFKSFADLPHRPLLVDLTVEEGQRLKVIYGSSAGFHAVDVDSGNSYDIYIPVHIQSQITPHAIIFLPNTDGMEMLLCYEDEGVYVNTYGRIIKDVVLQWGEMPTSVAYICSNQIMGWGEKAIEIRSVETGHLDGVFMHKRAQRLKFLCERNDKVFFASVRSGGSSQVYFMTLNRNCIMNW
LIM domain kinase 1 (Homo sapiens), sequence (P53667 whole entry, looked up, the tested form may be a part): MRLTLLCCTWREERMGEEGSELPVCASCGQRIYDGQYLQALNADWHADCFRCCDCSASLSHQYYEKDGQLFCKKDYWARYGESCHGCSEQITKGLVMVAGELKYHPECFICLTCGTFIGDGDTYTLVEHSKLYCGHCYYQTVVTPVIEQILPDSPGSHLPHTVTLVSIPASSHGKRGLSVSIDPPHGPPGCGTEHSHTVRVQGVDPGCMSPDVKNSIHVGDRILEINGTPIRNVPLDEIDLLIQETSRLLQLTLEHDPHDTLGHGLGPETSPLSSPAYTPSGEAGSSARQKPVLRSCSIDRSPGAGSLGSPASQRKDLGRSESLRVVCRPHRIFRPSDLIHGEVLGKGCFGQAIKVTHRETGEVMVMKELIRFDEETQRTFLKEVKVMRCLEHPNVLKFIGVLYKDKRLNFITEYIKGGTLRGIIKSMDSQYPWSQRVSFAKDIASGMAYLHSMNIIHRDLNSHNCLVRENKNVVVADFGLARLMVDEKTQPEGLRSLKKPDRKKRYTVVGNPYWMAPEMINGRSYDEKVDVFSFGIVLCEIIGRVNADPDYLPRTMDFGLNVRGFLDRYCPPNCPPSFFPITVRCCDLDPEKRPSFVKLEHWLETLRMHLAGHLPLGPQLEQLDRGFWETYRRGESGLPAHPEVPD
Serine/threonine-protein kinase 32A (Homo sapiens), sequence (Q8WU08 whole entry): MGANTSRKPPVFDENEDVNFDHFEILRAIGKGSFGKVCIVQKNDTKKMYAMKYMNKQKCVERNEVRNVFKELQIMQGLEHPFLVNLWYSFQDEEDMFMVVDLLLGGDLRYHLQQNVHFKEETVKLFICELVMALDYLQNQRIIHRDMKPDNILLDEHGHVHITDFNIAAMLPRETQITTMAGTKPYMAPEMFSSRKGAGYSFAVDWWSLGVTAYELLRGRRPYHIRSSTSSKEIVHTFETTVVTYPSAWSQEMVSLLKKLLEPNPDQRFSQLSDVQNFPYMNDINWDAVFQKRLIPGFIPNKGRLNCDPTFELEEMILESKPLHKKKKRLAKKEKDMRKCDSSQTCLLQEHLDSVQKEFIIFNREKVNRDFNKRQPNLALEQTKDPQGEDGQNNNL

CN(C)CC#Cc1ccc(OCCCc2sc(N3CCc4cccc(C(=O)Nc5nc6ccccc6s5)c4C3)nc2C(=O)O)c(F)c1 [A-1155463]
inactive: [1] 71% | [2] 92% | [3] 100% | [4] 100% | [5] 98% | [6] 100% | [7] 100% | [8] 100% | [9] 100% | [10] 100% | [11] 99% | [12] 100% | [13] 100% | [14] 100% | [15] 90% | [16] 84% | [17] 74% | [18] 89% | [19] 70% | [20] 92% | [21] 100% | [22] 100% | [23] 86% | [24] 62% | [25] 71% | [26] 88% | [27] 100% | [28] 92% | [29] 96% | [30] 88% | [31] 100% | [32] 100% | [33] 100% | [34] 97% | [35] 100% | [36] 100% | [37] 100% | [38] 100% | [39] 85% | [40] 93% | [41] 86% | [42] 100% | [43] 83% | [44] 95% | [45] 75%
